How the values were obtained:
NCI-H522 = assay: Anticancer activity against human NCI-H522 cells assessed as cell growth inhibition incubated for 48 hrs by SRB assay; assay type: functional; settings: read-out: LC50 (the source's name)
HCC 2998 [1] = assay: Cytotoxicity against human HCC 2998 cells assessed as inhibition of cell viability incubated for 72 hrs under hypoxia condition by MTT assay; assay type: functional, cell-based; settings: HCC 2998, 72 h
NCI-H23 = assay: Anticancer activity against human NCI-H23 cells assessed as cell growth inhibition incubated for 48 hrs by SRB assay; assay type: functional
SK-MEL-2 = assay: Anticancer activity against human SK-MEL-2 cells assessed as cell growth inhibition incubated for 48 hrs by SRB assay; assay type: functional; settings: read-out: LC50 (the source's name)
MOLT-4 = assay: Anticancer activity against human MOLT-4 cells assessed as cell growth inhibition incubated for 48 hrs by SRB assay; assay type: functional
SK-MEL-5 [2] = assay: Cytotoxicity against human SK-MEL-5 cells assessed as inhibition of cell viability incubated for 72 hrs under hypoxia condition by MTT assay; assay type: functional, cell-based; settings: SK-MEL-5, 72 h
A498 = assay: Anticancer activity against human A498 cells assessed as cell growth inhibition incubated for 48 hrs by SRB assay; assay type: functional
DU-145 = assay: Anticancer activity against human DU-145 cells assessed as cell growth inhibition incubated for 48 hrs by SRB assay; assay type: functional
TK-10 = assay: Anticancer activity against human TK-10 cells assessed as cell growth inhibition incubated for 48 hrs by SRB assay; assay type: functional; settings: read-out: LC50 (the source's name)
HCT-116 = assay: Anticancer activity against human HCT-116 cells assessed as cell growth inhibition incubated for 48 hrs by SRB assay; assay type: functional
M14 = assay: Anticancer activity against human M14 cells assessed as cell growth inhibition incubated for 48 hrs by SRB assay; assay type: functional
786-0 = assay: Anticancer activity against human 786-0 cells assessed as cell growth inhibition incubated for 48 hrs by SRB assay; assay type: functional
K562 = assay: Anticancer activity against human K562 cells assessed as cell growth inhibition incubated for 48 hrs by SRB assay; assay type: functional; settings: read-out: LC50 (the source's name)
MDA-MB-468 = assay: Anticancer activity against human MDA-MB-468 cells assessed as cell growth inhibition incubated for 48 hrs by SRB assay; assay type: functional; settings: read-out: LC50 (the source's name)
CCRF-CEM = assay: Anticancer activity against human CCRF-CEM cells assessed as cell growth inhibition incubated for 48 hrs by SRB assay; assay type: functional
NCI-H460 = assay: Anticancer activity against human NCI-H460 cells assessed as cell growth inhibition incubated for 48 hrs by SRB assay; assay type: functional
Malme-3M = assay: Anticancer activity against human Malme-3M cells assessed as cell growth inhibition incubated for 48 hrs by SRB assay; assay type: functional
PC-3 = assay: Anticancer activity against human PC-3 cells assessed as cell growth inhibition incubated for 48 hrs by SRB assay; assay type: functional; settings: read-out: LC50 (the source's name)
BT-549 = assay: Anticancer activity against human BT-549 cells assessed as cell growth inhibition incubated for 48 hrs by SRB assay; assay type: functional; settings: read-out: LC50 (the source's name)
SR = assay: Anticancer activity against human SR cells assessed as cell growth inhibition incubated for 48 hrs by SRB assay; assay type: functional; settings: read-out: LC50 (the source's name)
SF-295 = assay: Anticancer activity against human SF-295 cells assessed as cell growth inhibition incubated for 48 hrs by SRB assay; assay type: functional; settings: read-out: LC50 (the source's name)
UO-31 = assay: Anticancer activity against human UO-31 cells assessed as cell growth inhibition incubated for 48 hrs by SRB assay; assay type: functional; settings: read-out: LC50 (the source's name)
EKVX = assay: Anticancer activity against human EKVX cells assessed as cell growth inhibition incubated for 48 hrs by SRB assay; assay type: functional; settings: read-out: LC50 (the source's name)
MDA-MB-435 = assay: Anticancer activity against human MDA-MB-435 cells assessed as cell growth inhibition incubated for 48 hrs by SRB assay; assay type: functional
MDA-MB-231 = assay: Anticancer activity against human MDA-MB-231 cells assessed as cell growth inhibition incubated for 48 hrs by SRB assay; assay type: functional
SF-539 = assay: Anticancer activity against human SF-539 cells assessed as cell growth inhibition incubated for 48 hrs by SRB assay; assay type: functional
HOP-92 = assay: Anticancer activity against human HOP-92 cells assessed as cell growth inhibition incubated for 48 hrs by SRB assay; assay type: functional; settings: read-out: LC50 (the source's name)
HL-60(TB) = assay: Anticancer activity against human HL-60(TB) cells assessed as cell growth inhibition incubated for 48 hrs by SRB assay; assay type: functional
SK-MEL-5 [3] = assay: Anticancer activity against human SK-MEL-5 cells assessed as cell growth inhibition incubated for 48 hrs by SRB assay; assay type: functional
SNB-19 = assay: Anticancer activity against human SNB-19 cells assessed as cell growth inhibition incubated for 48 hrs by SRB assay; assay type: functional; settings: read-out: LC50 (the source's name)
SN12C = assay: Anticancer activity against human SN12C cells assessed as cell growth inhibition incubated for 48 hrs by SRB assay; assay type: functional
SK-MEL-28 = assay: Anticancer activity against human SK-MEL-28 cells assessed as cell growth inhibition incubated for 48 hrs by SRB assay; assay type: functional; settings: read-out: LC50 (the source's name)
NCI-H322M = assay: Anticancer activity against human NCI-H322M cells assessed as cell growth inhibition incubated for 48 hrs by SRB assay; assay type: functional; settings: read-out: LC50 (the source's name)
A549 = assay: Anticancer activity against human A549 cells assessed as cell growth inhibition incubated for 48 hrs by SRB assay; assay type: functional
MCF7 = assay: Anticancer activity against human MCF7 cells assessed as cell growth inhibition incubated for 48 hrs by SRB assay; assay type: functional
RXF 393 [4] = assay: Anticancer activity against human RXF 393 cells assessed as cell growth inhibition incubated for 48 hrs by SRB assay; assay type: functional; settings: read-out: LC50 (the source's name)
HCC 2998 [5] = assay: Anticancer activity against human HCC 2998 cells assessed as cell growth inhibition incubated for 48 hrs by SRB assay; assay type: functional
HT-29 = assay: Anticancer activity against human HT-29 cells assessed as cell growth inhibition incubated for 48 hrs by SRB assay; assay type: functional
HOP-62 = assay: Anticancer activity against human HOP-62 cells assessed as cell growth inhibition incubated for 48 hrs by SRB assay; assay type: functional
NCI-H226 = assay: Anticancer activity against human NCI-H226 cells assessed as cell growth inhibition incubated for 48 hrs by SRB assay; assay type: functional; settings: read-out: LC50 (the source's name)
U-251 = assay: Anticancer activity against human U-251 cells assessed as cell growth inhibition incubated for 48 hrs by SRB assay; assay type: functional
UACC-62 = assay: Anticancer activity against human UACC-62 cells assessed as cell growth inhibition incubated for 48 hrs by SRB assay; assay type: functional
HCT-15 = assay: Anticancer activity against human HCT-15 cells assessed as cell growth inhibition incubated for 48 hrs by SRB assay; assay type: functional
NCI/ADR-RES = assay: Anticancer activity against human NCI/ADR-RES cells assessed as cell growth inhibition incubated for 48 hrs by SRB assay; assay type: functional
OVCAR-5 = assay: Anticancer activity against human OVCAR-5 cells assessed as cell growth inhibition incubated for 48 hrs by SRB assay; assay type: functional; settings: read-out: LC50 (the source's name)
RPMI-8226 = assay: Anticancer activity against human RPMI-8226 cells assessed as cell growth inhibition incubated for 48 hrs by SRB assay; assay type: functional
OVCAR-3 = assay: Anticancer activity against human OVCAR-3 cells assessed as cell growth inhibition incubated for 48 hrs by SRB assay; assay type: functional
IGROV-1 = assay: Anticancer activity against human IGROV-1 cells assessed as cell growth inhibition incubated for 48 hrs by SRB assay; assay type: functional; settings: read-out: LC50 (the source's name)
COLO 205 = assay: Anticancer activity against human COLO 205 cells assessed as cell growth inhibition incubated for 48 hrs by SRB assay; assay type: functional
RXF 393 [6] = assay: Cytotoxicity against human RXF 393 cells assessed as inhibition of cell viability incubated for 72 hrs under hypoxia condition by MTT assay; assay type: functional, cell-based; settings: RXF 393, 72 h
KM12 = assay: Anticancer activity against human KM12 cells assessed as cell growth inhibition incubated for 48 hrs by SRB assay; assay type: functional
CAKI-1 = assay: Anticancer activity against human CAKI-1 cells assessed as cell growth inhibition incubated for 48 hrs by SRB assay; assay type: functional
SW-620 = assay: Anticancer activity against human SW-620 cells assessed as cell growth inhibition incubated for 48 hrs by SRB assay; assay type: functional
ACHN = assay: Anticancer activity against human ACHN cells assessed as cell growth inhibition incubated for 48 hrs by SRB assay; assay type: functional
[7] = read-out: LC50 (the source's name)

O=c1[nH]cc(F)c(=O)[nH]1 [FLUOROURACIL]
CC50 (NCI-H522): > 100000 nM | IC50 (HCC 2998 [1]): 12600 nM | GI50 (NCI-H23): 330 nM | CC50 (NCI-H23; [7]): > 100000 nM | CC50 (SK-MEL-2): > 100000 nM | GI50 (MOLT-4): 350 nM | CC50 (MOLT-4; [7]): > 100000 nM | IC50 (SK-MEL-5 [2]): 15300 nM | GI50 (A498): 350 nM | CC50 (A498; [7]): > 100000 nM | GI50 (DU-145): 360 nM | CC50 (TK-10): > 100000 nM | GI50 (HCT-116): 220 nM | GI50 (M14): 980 nM | CC50 (M14; [7]): > 100000 nM | GI50 (786-0): 720 nM | CC50 (786-0; [7]): > 100000 nM | CC50 (K562): > 100000 nM | CC50 (MDA-MB-468): > 100000 nM | GI50 (CCRF-CEM): 9970 nM | CC50 (CCRF-CEM; [7]): > 100000 nM | GI50 (NCI-H460): 50 nM | CC50 (NCI-H460; [7]): > 100000 nM | GI50 (Malme-3M): 50 nM | CC50 (Malme-3M; [7]): > 100000 nM | CC50 (PC-3): > 100000 nM | CC50 (BT-549): > 100000 nM | CC50 (SR): > 100000 nM | CC50 (SF-295): > 100000 nM | CC50 (UO-31): > 100000 nM | CC50 (EKVX): > 100000 nM | GI50 (MDA-MB-435): 70 nM | GI50 (MDA-MB-231): 6600 nM | GI50 (SF-539): 60 nM | CC50 (SF-539; [7]): > 100000 nM | CC50 (HOP-92): > 100000 nM | GI50 (HL-60(TB)): 2300 nM | CC50 (HL-60(TB); [7]): > 100000 nM | GI50 (SK-MEL-5 [3]): 460 nM | CC50 (SNB-19): > 100000 nM | GI50 (SN12C): 490 nM | CC50 (SK-MEL-28): > 100000 nM | CC50 (NCI-H322M): > 100000 nM | GI50 (A549): 180 nM | GI50 (MCF7): 70 nM | CC50 (RXF 393 [4]): > 100000 nM | GI50 (HCC 2998 [5]): 50 nM | CC50 (HCC 2998 [5]; [7]): > 100000 nM | GI50 (HT-29): 170 nM | CC50 (HT-29; [7]): > 100000 nM | GI50 (HOP-62): 390 nM | CC50 (HOP-62; [7]): > 100000 nM | CC50 (NCI-H226): > 100000 nM | GI50 (U-251): 920 nM | CC50 (U-251; [7]): > 100000 nM | GI50 (UACC-62): 520 nM | GI50 (HCT-15): 110 nM | CC50 (HCT-15; [7]): > 100000 nM | GI50 (NCI/ADR-RES): 310 nM | CC50 (NCI/ADR-RES; [7]): > 100000 nM | CC50 (OVCAR-5): > 100000 nM | GI50 (RPMI-8226): 40 nM | GI50 (OVCAR-3): 10 nM | CC50 (IGROV-1): > 100000 nM | GI50 (COLO 205): 150 nM | CC50 (COLO 205; [7]): > 100000 nM | IC50 (RXF 393 [6]): 28200 nM | GI50 (KM12): 210 nM | CC50 (KM12; [7]): > 100000 nM | GI50 (CAKI-1): 70 nM | CC50 (CAKI-1; [7]): > 100000 nM | GI50 (SW-620): 920 nM | CC50 (SW-620; [7]): > 100000 nM | GI50 (ACHN): 270 nM | CC50 (ACHN; [7]): > 100000 nM

From ChEMBL document CHEMBL5154747, “Discovery of new carbonic anhydrase IX inhibitors as anticancer agents by toning the hydrophobic and hydrophilic rims of the active site to encounter the dual-tail approach” (Eur J Med Chem, 2022)
